Reference: patent US7718804B2, “Quaternary nitrogen heterocyclic compounds for detecting aqueous monosaccharides in physiological fluids” (University of Maryland Biotechnology Institute, priority 2003, dated 2010)
Like-named read-outs stand apart in the source and are kept apart here. Each block holds one compound with its values, some of them ahead of it.

Key:
[1] = Fluoride sensing by fluorescence
From the text: Moreover, because the quenching of fluorescence is not a selective process, any fluorophore quenched by chloride is also quenched by bromide and iodide to an even more substantial extent, allowing for the determination of bromide or iodide concentrations as well. Generally, fluorophores that are quenched by chloride are not quenched by fluoride, which is often attributed to the “heavy-atom effect” (Geddes, C. D., Meas. Sci. Technol., 12, R53 (2001); Lakowicz, J. R., Principles of Fluorescence Spectroscopy, 2nd ed., Kluwer/Academic Plenum Publishers, New York, 1997).

[2] = Spectral properties in water (absorption, emission, quantum yield, lifetime); type: physicochemical; conditions: for φf (quantum yield): relative to SPQ (φf=0.53 in water)
Procedure: (§1) All steady state fluorescence measurements were performed in a 4×1×1 cm fluorometric plastic cuvette, using a Varian Cary Eclipse fluorometer, and all absorption measurements were performed using a Varian UV/VIS 50 spectrophotometer.
Time-solved intensity decays were measured using reverse start-stop time-correlated single-photon timing (TCSPC) with a Becker and Hickl Gmbh 630 SPC PC card and unamplified MCP-PMT. Vertically polarized excitation at ˜372 nm was obtained using a pulsed LED source (1 MHz repetition rate) and a dichroic sheet polarizer. The instrumental response function was ˜1.1 ns fwhm. The emission was collected at the magic angle (54.7°) using a long pass filter (Edmund Scientific) which cut-off the excitation wavelengths.
The intensity decays were analyzed in terms of the multi-exponential model:
[formula] where αi are the amplitudes and τi are the decay times, Σαi=1.0. The fractional contribution of each component to the steady-state intensity is given by:
The mean lifetime of the excited state is given by:
The values of αi and τi were determined by non-linear least squares impulse reconvolution with a goodness-of-fit χ^2R criterion.
A representative absorption and emission spectra for o-BMQBA in water is shown in FIG. 3B, which corresponds to all three isomers and BMQ. BMQBA has a strong absorption band at ˜320 nm, which can be assigned to n→π* transitions, and an excitation band at ˜427 nm, and as such, has a large Stokes shift of about 100 nm, which is ideal for fluorescence sensing. The quantum yield values of the BMQBA compounds in water relative to N-(3-sulfopropyl)-6-methoxyquinolinium (SPQ) (φf=0.53 in water) are shown in Table 1. The low quantum yields and relatively short lifetime of the BMQBA and BMQ molecules can be attributed to a photo-induced electron transfer, whereby the phenyl ring acts as the donor and the quinolinium moiety acts as the acceptor.
A representative absorption and emission spectra for o-BMOQBA in water is shown in FIG. 3A, which corresponds to all three isomers and BMOQ. BMOQBA has a strong absorption band at ˜345 nm, which can be assigned to n→π* transitions, and an excitation band at ˜450 nm, and as such, has a large Stokes shift of about 100 nm, which is ideal for fluorescence sensing. The quantum yield values of the BMOQBA compounds in water relative to N-(3-sulfopropyl)-6-methoxyquinolinium (SPQ) (φf=0.53 in water) are shown in Table 2. […] We can only speculate as to the quantum yield differences between the m-BMOQBA and p-BMOQBA compounds, which may be attributed to through-bond and through-space mechanisms.

[3] = Fluorescence intensity response to fructose in solution
Procedure: as §1
The emission spectra of o-BMQBA in the presence of varying concentrations of fructose and glucose are shown in FIG. 4A and FIG. 4B, respectively. It can be seen that the fluorescence intensity of o-BMQBA in pH 7.5 phosphate buffer is inversely proportional to the glucose and fructose concentrations. […] A plot of the intensity ratio, I′/I, at λ=427 nm, where I′ and I represent the fluorescence intensities in the absence and presence of sugar, respectively, is shown in FIG. 4C. […] It is noted that the concentration of fructose in blood is ˜10 times lower than glucose, a relationship which is also thought to occur in tears (N. Dicesare, et. al., J. Bio. Med. Opt., 7(4), 538-545 (2002)).
The intensity ratio for o-BMQBA in buffered media (pH 5-8) at various glucose concentrations is shown in FIG. 8A, wherein I′ corresponds to the intensity in the absence of glucose and I corresponds to the intensity at the specified glucose concentration. In addition, the intensity ratio for o-BMQBA in buffered media (pH 5-8) at low glucose concentrations, typical of those found in tears, is shown in FIG. 8B. Correspondingly, the intensity ratio for o-BMQBA in buffered media (pH 5-8) at various fructose concentrations is shown in FIGS. 9A and 9B.
Because physiological fluids contain chloride ions, which are well known quenchers of quinolinium fluorescence (Geddes, C. D., Meas. Sci. Technol., 12(9), R53-R88 (2001); Geddes, C. D., et al., J. Heterocyclic Chem., 36(4), 949-951 (1999); Geddes, C. D., et al., Anal. Biochem., 293(1), 60-66 (2001)), the fluorescence intensity and intensity ratios of o-BMQBA in pH 7.5 buffer having 100 mM NaCl with varying quantities of fructose or glucose was measured and shown in FIGS. 10 and 11, respectively, where I′ corresponds to the intensity in the absence of fructose and I corresponds to the intensity at the specified fructose concentration. It can be seen that although chloride quenched the intensity of the emission in the presence of fructose, the intensity ratio change for fructose is still significant, amounting to a 4-fold decrease in fluorescence intensity at 60 mM fructose (see FIG. 10B). The quenching effect was less significant at lower concentrations of fructose (see FIG. 10C) and for glucose concentrations, both high and low (see FIGS. 11B and 11C). This minimal quenching effect for BMQBA is supported by the calculated Stern-Volmer constants, KSV, for the BMQBA compounds in water, which were determined to be 44.0 M^−1, 20.0 M^−1, 17.0 M^−1 and 35.0 M^−1 for o-BMQBA, m-BMQBA, p-BMQBA and BMQ, respectively. These are small quenching constants that are readily accounted for using simple corrections in the fluorescence signal, as readily determined by one skilled in the art of fluorescence.
(§2) The intensity ratio at λ=450 nm for o-BMOQBA in buffered media (pH 5-8) at various glucose concentrations is shown in FIG. 16A, wherein I′ corresponds to the intensity in the absence of glucose and I corresponds to the intensity at the specified glucose concentration. In addition, the intensity ratio for o-BMOQBA in buffered media (pH 5-8) at low glucose concentrations, typical of those found in tears, is shown in FIG. 16B. Correspondingly, the intensity ratio for o-BMOQBA in buffered media (pH 5-8) at various fructose concentrations is shown in FIGS. 17A and 17B.
Each BAF was tested to determine the usefulness of these BAFs with regard to tear glucose sensing in a contact lens. Towards that end, both solution-based and doped contact lens-based measurements, the methods of which are described above, were performed and subsequently compared. […]

[4] = Fluorescence intensity response to glucose in solution; conditions: for decrease in fluorescence intensity: 0.60 mM glucose, pH 6 to 7 range, buffered solution
Procedure: All steady state fluorescence measurements were performed in a 4×1×1 cm fluorometric plastic cuvette, using a Varian Cary Eclipse fluorometer, and all absorption measurements were performed using a Varian UV/VIS 50 spectrophotometer. […]
The emission spectra of o-BMOQBA in the presence of varying concentrations of glucose and fructose are shown in FIG. 12A and FIG. 12B, respectively. It can be seen that the fluorescence intensity of o-BMOQBA in pH 7.5 phosphate buffer is inversely proportional to the glucose and fructose concentrations. […] A plot of the intensity ratio, I′/I, at λ=450 nm, where I′ and I represent the fluorescence intensities in the absence and presence of sugar, respectively, is shown in FIG. 12C. […] Referring to FIG. 12C, there is a 2.8-fold change in intensity by the addition of 60 mM sugar.
as §2
Each BAF was tested to determine the usefulness of these BAFs with regard to tear glucose sensing in a contact lens. Towards that end, both solution-based and doped contact lens-based measurements, the methods of which are described above, were performed and subsequently compared.

[5] = in water; cited from earlier work
[6] = pKa from normalized fluorescence intensity versus pH, with and without 100 mM sugar; type: physicochemical
From the text: A normalized plot of intensity at 427 nm as a function of pH is shown in FIG. 6, wherein I is the emission intensity at the specified pH and Io is the initial emission intensity at pH 3.0. Though not to be bound by theory, it is likely that the change in fluorescence intensity relative to pH value is attributed to the change in hybridization of the boron atom with increasing pH. At low pH values, the boronic acid group is an electron-deficient Lewis acid that is sp^2-hybridized and thus is trigonal planar. As the pH increases, the anionic form of the boronic acid begins to form, which corresponds to a more electron rich sp^3-hybridized boron atom and an […] shape. The change in the geometry of the boron atom induces the fluorescence spectral changes of the molecular sensing moieties.
Based on previously reported pKa values for boronic acid compounds, these pKa values are the lowest reported for a phenyl boronic acid derivative. The quaternary nitrogen of the quinolinium moiety not only reduces the pKa of the compound, but also stabilizes the anionic boronate diester complex (represented by D in FIG. 1), which may explain the affinity of sugar for these novel compounds. Importantly, the large decrease in the pKa of the boronic acid-sugar complex relative to the uncomplexed boronic acid, allows for the quantitative detection of monosaccharides at or below physiological pH because substantial optical changes are observed.
A normalized plot of intensity at 450 nm as a function of pH is shown in FIG. 14, wherein normalized intensity is the emission intensity at the specified pH, I, relative to the initial emission intensity at pH 3.0, Io. As discussed with reference to o-BMQBA, the change in the geometry of the boron atom may explain the fluorescence spectral changes of the molecular sensing moieties.
Comparing the pKa values of previously reported boronic acid compounds relative to the novel BMOQBA isomers, these pKa values are relatively low. As discussed with reference to o-BMQBA, the lower pKa values can be attributed to the increased Lewis acidity of the boronate diester complex (represented by D in FIG. 1). Importantly, the large decrease in the pKa of the boronic acid-sugar complex relative to the uncomplexed boronic acid, allows for the quantitative detection of monosaccharides at or below physiological pH because substantial optical changes are observed.

[7] = Dissociation constant from fluorescence titration with glucose; type: binding; conditions: pH 7.5 phosphate buffer
From the text: (§3) Stability (KS (mM^−1) and dissociation (KD) constants were obtained by fitting the titration curves with sugar to the relation:
(§4) [formula] where Imin and Imax are initial (no sugar) and final (plateau) fluorescence intensities of the titration curves and KD=(1/KS).

[8] = Dissociation constant from fluorescence titration with fructose; type: binding; conditions: pH 7.5 phosphate buffer
From the text: as §3, §4

[9] = buffer with 100 mM fructose, 100 mM fructose, read-out: pKa (buffer + fructose)
[10] = buffer with 100 mM glucose, 100 mM glucose, read-out: pKa (buffer + glucose)
[11] = buffer without sugar, absence of sugar, read-out: pKa (buffer)

Compound: Nc1ccc2c(ccc[n+]2Cc2ccccc2B(O)O)c1.[Br-] [BAQBA, N-(2-boronobenzyl)-6-aminoquinolinium bromide]
detectable fluoride concentration [1]: below 50 mM

λem (max) [2]: 453 nm
τf (mean lifetime) [2]: 27.3 ns
φf (quantum yield) [2]: 0.54
Compound: COc1ccc2c(ccc[n+]2Cc2ccccc2)c1 [BMOQ, N-benzyl-6-methoxyquinolinium bromide]

λabs (max) [2]: 322 nm
λem (max) [2]: 427 nm
τf (mean lifetime) [2]: 2.59 ns
φf (quantum yield) [2]: 0.045
Compound: Cc1ccc2c(ccc[n+]2Cc2ccccc2)c1 [BMQ, N-benzyl-6-methylquinolinium bromide]

Compound: N#Cc1ccc(/C=C/c2ccc(B(O)O)cc2)cc1 [CSTBA, 4′-cyanostilbene-4-boronic acid]
red shift of emission spectra ([3]; increasing fructose, pH 8.0 buffer/methanol (2:1)): about 25 nm

Compound: CN(C)c1ccc(/C=C/C=C/C(=O)c2ccc(B(O)O)cc2)cc1 [Chalc 2, 5-[4′-(dimethylamino)phenyl]-1-(4′-boronophenyl)-pent-2,4-dien-1-one]
increase in fluorescence emission ([3]; 100 mM fructose, pH 8.0, solution): 3 fold

Compound: CN(C)c1ccc(/C=C/c2ccc(B(O)O)cc2)cc1 [DSTBA, 4′-dimethylaminostilbene-4-boronic acid]
ratiometric change in intensity ([4]; 60 mM glucose, pH 8.0 buffer/methanol (2:1)): 2 fold
ratiometric change in intensity ([3]; 60 mM fructose, pH 8.0 buffer/methanol (2:1)): 4.5 fold
blue shift of emission spectra ([3]; fructose 0 mM→100 mM, pH 8.0 buffer/methanol (2:1)): about 30 nm

Compound: COc1ccc2c(ccc[n+]2CCCS(=O)(=O)O)c1 [SPQ, N-(3-sulfopropyl)-6-methoxyquinolinium]
φf (quantum yield) of reference standard [5]: 0.53

λem (max) [2]: 450 nm
τf (mean lifetime) [2]: 26.7 ns
φf (quantum yield) [2]: 0.46
pKa [6, 9]: 4.8
pKa [6, 10]: 6.62
pKa [6, 11]: 7.9
Kd [7]: 49.5 mM
Kd [8]: 0.65 mM
Compound: COc1ccc2c(ccc[n+]2Cc2ccccc2B(O)O)c1.[Br-] [o-BMOQBA, N-(2-boronobenzyl)-6-methoxyquinolinium bromide]
decrease in fluorescence intensity [4]: 5-10%
change in intensity (I′/I at 450 nm) ([4]; addition of 60 mM sugar, pH 7.5 phosphate buffer (FIG. 12C)): 2.8 fold
decrease in fluorescence intensity ([3]; 0.50 mM fructose, pH 6 to 7 range, buffered solution): 10-40%

λabs (max) [2]: 319 nm
λem (max) [2]: 427 nm
τf (mean lifetime) [2]: 4.01 ns
φf (quantum yield) [2]: 0.043
pKa [6, 9]: 5.08
pKa [6, 10]: 6.18
pKa [6, 11]: 6.92
Kd [7]: 100 mM
Kd [8]: 4.7 mM
Compound: Cc1ccc2c(ccc[n+]2Cc2ccccc2B(O)O)c1.[Br-] [o-BMQBA, N-(2-boronobenzyl)-6-methylquinolinium bromide]
decrease in fluorescence intensity [4]: ~10%
decrease in fluorescence intensity ([3]; 60 mM fructose, pH 7.5 buffer with 100 mM NaCl): 4 fold
